The values below come from the NIST ThermoML archive (doi:10.1016/j.jct.2017.03.004).

The data set can be described thus: activity coefficient (dimensionless); of the first substance listed, at infinite dilution; xn = mol fraction of the nth substance listed. Particulars: 101.33 kPa, Liquid, Chromatography, x1 = 0.

± gives the expanded uncertainty stated by the source.

As to `CCC(C)O` (stereo not given) [butan-2-ol] + N#C[N-]C#N.OCCC[n+]1ccccc1, the activity coefficient amounted to 3.23 ± 0.22 (318.15 K); 3.18 ± 0.22 (328.15 K); 3.13 ± 0.21 (338.15 K); 3.09 ± 0.21 (348.15 K); 3.05 ± 0.21 (358.15 K); 3.02 ± 0.21 (368.15 K).

Regarding `CCCC=O` [butanal] + N#C[N-]C#N.OCCC[n+]1ccccc1, the activity coefficient (318.15 K) was 4.09 ± 0.28; the activity coefficient (328.15 K) came out at 4.21 ± 0.29; the activity coefficient (338.15 K) came to 4.3 ± 0.29; the activity coefficient (348.15 K) worked out at 4.39 ± 0.3; the activity coefficient (358.15 K) came to 4.49 ± 0.31; the activity coefficient (368.15 K) was found to be 4.57 ± 0.31.

For `C1CCCCCC1` [cycloheptane] + N#C[N-]C#N.OCCC[n+]1ccccc1, the activity coefficient is 161 ± 11 (298.15 K); 149 ± 10 (308.15 K); 139 ± 10 (318.15 K); 130 ± 9 (328.15 K); 122 ± 8 (338.15 K); 115 ± 8 (348.15 K). The activity coefficient (358.15 K) is 109 ± 7.

In the case of `C1CCCCC1` [cyclohexane] + N#C[N-]C#N.OCCC[n+]1ccccc1, the activity coefficient runs as follows: (298.15 K) 118 ± 8; (308.15 K) 111 ± 8; (318.15 K) 105 ± 7; (328.15 K) 99.8 ± 6.8; (338.15 K) 95 ± 6.5; (348.15 K) 90.7 ± 6.2. For the setting “358.15 K”, the activity coefficient amounted to 86.9 ± 6.

For `C1=CCCCC1` [cyclohexene] + N#C[N-]C#N.OCCC[n+]1ccccc1, the activity coefficient by setting is: (298.15 K) 38.7 ± 2.6; (308.15 K) 37.6 ± 2.6; (318.15 K) 36.6 ± 2.5; (328.15 K) 35.8 ± 2.4; (338.15 K) 34.8 ± 2.4; (348.15 K) 34 ± 2.3. The activity coefficient (358.15 K) is 33.4 ± 2.3.

Consider `C1CCCCCCC1` [cyclooctane] + N#C[N-]C#N.OCCC[n+]1ccccc1, for which the activity coefficient came out at 231 ± 16 (298.15 K); 215 ± 15 (308.15 K); 201 ± 14 (318.15 K); 188 ± 13 (328.15 K); 178 ± 12 (338.15 K); 168 ± 12 (348.15 K). For the setting “358.15 K”, the activity coefficient was determined as 159 ± 11.

Consider `C1CCCC1` [cyclopentane] + N#C[N-]C#N.OCCC[n+]1ccccc1, for which the activity coefficient is 67 ± 4.6 (298.15 K); 63.5 ± 4.3 (308.15 K); 60.4 ± 4.1 (318.15 K); 57.4 ± 3.9 (328.15 K); 54.9 ± 3.8 (338.15 K); 52.7 ± 3.6 (348.15 K). For the same compound, the activity coefficient (358.15 K) came to 50.5 ± 3.5.

As to `CCCCCCCCCC` [decane] + N#C[N-]C#N.OCCC[n+]1ccccc1, the activity coefficient is, setting by setting: (298.15 K) 2100 ± 140; (308.15 K) 1900 ± 130; (318.15 K) 1730 ± 120; (328.15 K) 1580 ± 110; (338.15 K) 1450 ± 100; (348.15 K) 1340 ± 92. Besides, the activity coefficient (358.15 K) turned out to be 1240 ± 86.

Turning to `CCOCC` [diethyl ether] + N#C[N-]C#N.OCCC[n+]1ccccc1, the activity coefficient by setting is: (318.15 K) 21.5 ± 1.5; (328.15 K) 21.5 ± 1.5; (338.15 K) 21.5 ± 1.5; (348.15 K) 21.5 ± 1.5; (358.15 K) 21.4 ± 1.5; (368.15 K) 21.4 ± 1.5.

Regarding `CC(C)OC(C)C` [diisopropyl ether] + N#C[N-]C#N.OCCC[n+]1ccccc1, the activity coefficient by setting is: (318.15 K) 105 ± 7; (328.15 K) 102 ± 7; (338.15 K) 99.8 ± 6.8; (348.15 K) 97.5 ± 6.7; (358.15 K) 95.4 ± 6.5; (368.15 K) 93.6 ± 6.4.

As for `CCCOCCC` [dipropyl ether] + N#C[N-]C#N.OCCC[n+]1ccccc1, the activity coefficient is, setting by setting: (318.15 K) 92.3 ± 6.3; (328.15 K) 89.2 ± 6.1; (338.15 K) 86.8 ± 5.9; (348.15 K) 84.2 ± 5.8; (358.15 K) 81.9 ± 5.6; (368.15 K) 79.7 ± 5.5.

Consider `CCO` [ethanol] + N#C[N-]C#N.OCCC[n+]1ccccc1, for which the activity coefficient is, setting by setting: (318.15 K) 1.3 ± 0.08; (328.15 K) 1.3 ± 0.08; (338.15 K) 1.3 ± 0.08; (348.15 K) 1.31 ± 0.09; (358.15 K) 1.31 ± 0.09; (368.15 K) 1.31 ± 0.09.

In the case of `CCOC(C)=O` [ethyl acetate] + N#C[N-]C#N.OCCC[n+]1ccccc1, the activity coefficient came to 6.37 ± 0.43 (318.15 K); 6.6 ± 0.45 (328.15 K); 6.81 ± 0.46 (338.15 K); 7.02 ± 0.48 (348.15 K); 7.23 ± 0.49 (358.15 K); 7.43 ± 0.51 (368.15 K).

Regarding `CCc1ccccc1` [ethylbenzene] + N#C[N-]C#N.OCCC[n+]1ccccc1, the activity coefficient is, setting by setting: (318.15 K) 16.1 ± 1.1; (328.15 K) 16.4 ± 1.1; (338.15 K) 16.8 ± 1.1; (348.15 K) 17.1 ± 1.2; (358.15 K) 17.4 ± 1.2; (368.15 K) 17.7 ± 1.2.

In the case of `CCCCCCC` [heptane] + N#C[N-]C#N.OCCC[n+]1ccccc1, the activity coefficient runs as follows: (298.15 K) 582 ± 40; (308.15 K) 527 ± 36; (318.15 K) 481 ± 33; (328.15 K) 441 ± 30; (338.15 K) 407 ± 28; (348.15 K) 377 ± 26. Further, the activity coefficient (358.15 K) was 351 ± 24.

For the compound `C=CCCCC` [hex-1-ene] + N#C[N-]C#N.OCCC[n+]1ccccc1, the activity coefficient worked out at 130 ± 9 (298.15 K); 125 ± 9 (308.15 K); 120 ± 8 (318.15 K); 115 ± 8 (328.15 K); 111 ± 8 (338.15 K); 107 ± 7 (348.15 K). The activity coefficient (358.15 K) came out at 103 ± 7.

Regarding `CCCCCC` [hexane] + N#C[N-]C#N.OCCC[n+]1ccccc1, the activity coefficient is 364 ± 25 (298.15 K), 328 ± 23 (308.15 K), 296 ± 20 (318.15 K) and 269 ± 18 (328.15 K).

For the compound `CC(C)c1ccccc1` [isopropylbenzene] + N#C[N-]C#N.OCCC[n+]1ccccc1, the activity coefficient came out at 29.5 ± 2 (318.15 K); 29.7 ± 2 (328.15 K); 29.8 ± 2 (338.15 K); 30 ± 2.1 (348.15 K); 30.2 ± 2.1 (358.15 K); 30.4 ± 2.1 (368.15 K).

With `CO` [methanol] + N#C[N-]C#N.OCCC[n+]1ccccc1, the activity coefficient (318.15 K) was 0.682 ± 0.046; the activity coefficient (328.15 K) came to 0.692 ± 0.047; the activity coefficient (338.15 K) came out at 0.703 ± 0.047; the activity coefficient (348.15 K) was found to be 0.713 ± 0.048; the activity coefficient (358.15 K) came to 0.725 ± 0.048; the activity coefficient (368.15 K) was determined as 0.733 ± 0.049.

With `CCCC(=O)OC` [methyl butanoate] + N#C[N-]C#N.OCCC[n+]1ccccc1, the activity coefficient (318.15 K) is 10.3 ± 0.7; the activity coefficient (328.15 K) is 10.6 ± 0.7; the activity coefficient (338.15 K) came to 10.9 ± 0.7; the activity coefficient (348.15 K) amounted to 11.2 ± 0.8; the activity coefficient (358.15 K) stood at 11.5 ± 0.8; the activity coefficient (368.15 K) is 11.7 ± 0.8.

Regarding `COC(C)=O` [methyl ethanoate] + N#C[N-]C#N.OCCC[n+]1ccccc1, the activity coefficient (318.15 K) was 3.28 ± 0.22; the activity coefficient (328.15 K) is 3.43 ± 0.23; the activity coefficient (338.15 K) worked out at 3.56 ± 0.24; the activity coefficient (348.15 K) is 3.71 ± 0.25; the activity coefficient (358.15 K) is 3.84 ± 0.26; the activity coefficient (368.15 K) stood at 3.98 ± 0.27.

`CCC(=O)OC` [methyl propanoate] + N#C[N-]C#N.OCCC[n+]1ccccc1: the activity coefficient was 5.77 ± 0.39 (318.15 K); 5.99 ± 0.41 (328.15 K); 6.2 ± 0.42 (338.15 K); 6.42 ± 0.44 (348.15 K); 6.61 ± 0.45 (358.15 K); 6.81 ± 0.46 (368.15 K).

Take `CC1CCCCC1` [methylcyclohexane] + N#C[N-]C#N.OCCC[n+]1ccccc1: the activity coefficient was determined as 210 ± 14 (298.15 K); 195 ± 13 (308.15 K); 182 ± 13 (318.15 K); 170 ± 12 (328.15 K); 160 ± 11 (338.15 K); 150 ± 10 (348.15 K). The activity coefficient (358.15 K) was 143 ± 10.
